What was measured:
[1] = Designed experiment: percentage of separation of aqueous mixtures of pesticide, adjuvant and hydrotrope (FIG. 2 ternary diagram); type: physicochemical; details: pesticide formulation containing AGAR 7053 as adjuvant
Excerpt: The performance of the sodium monobutyl sulfosuccinate as hydrotrope for pesticide formulation containing the AGAR 7053 as adjuvant was also confirmed by the results of a designed experiment.
The numbers associated with the small colored bar in the upper left hand corner of the Figure give the percentage of separation in the samples. The colors in the bar are related to the colored regions in the ternary diagram. As the regions in the graph go from red to blue the percentage of separation goes to zero.

[2] = Stability and uniformity of high-load glufosinate-ammonium formulation (FIG. 1); type: physicochemical; details: 1:1 mixture glufosinate-ammonium active and ACAR 7053 (C8 ether sulfate adjuvant), hydrotrope present, FIG. 1C
Excerpt: The unique structure of the monoalkyl sulfosuccinates of structure (I) renders them the capability of compatibilizing or stabilizing the highly concentrated components in the pesticide/herbicide formulation. Such capability is best illustrated by the performance of monoalkylsulfosuccinates, particularly of sodium monobutyl sulfosuccinate in the high load glufosinate-ammonium formulations. In these formulations, the active loading is at the highest (280 g/l). As the active content increases, the adjuvant content increases and the water content is reduced. Consequently, there is not enough water to solubilize both the herbicide active and the adjuvant. Without the action of a hydrotrope, the two components would separate.
Without hydrotrope, the formulation is a hazy mixture when freshly mixed (FIG. 1A) that separates into two layers upon standing (FIG. 1B).

appearance of formulation when freshly mixed [2]: clear
stability of formulation after prolonged standing [2]: retains that clarity and uniformity
SMILES: CCCCOC(=O)C(CC(=O)[O-])S(=O)(=O)O.[Na+] (stereo not drawn) [sodium monobutyl sulfosuccinate]
performance as hydrotrope (separation of samples) [1]: performed as a hydrotrope over a wide range of concentrations

Reference: patent publication US9307757B2, “Monoalkyl sulfosuccinates in pesticide formulations and applications” (AKZO NOBEL CHEMICALS INTERNATIONAL B.V., priority 2009, dated 2016)
